Experiment [1] concerns the target T1, angiotensin II receptor (Rattus norvegicus, UniProt P25095).
T1 construct: A fresh membrane preparation obtained from the liver of a rat was used; from tissue; host or cells: rat liver, fresh membrane preparation
T1 sequence (P25095 1-359): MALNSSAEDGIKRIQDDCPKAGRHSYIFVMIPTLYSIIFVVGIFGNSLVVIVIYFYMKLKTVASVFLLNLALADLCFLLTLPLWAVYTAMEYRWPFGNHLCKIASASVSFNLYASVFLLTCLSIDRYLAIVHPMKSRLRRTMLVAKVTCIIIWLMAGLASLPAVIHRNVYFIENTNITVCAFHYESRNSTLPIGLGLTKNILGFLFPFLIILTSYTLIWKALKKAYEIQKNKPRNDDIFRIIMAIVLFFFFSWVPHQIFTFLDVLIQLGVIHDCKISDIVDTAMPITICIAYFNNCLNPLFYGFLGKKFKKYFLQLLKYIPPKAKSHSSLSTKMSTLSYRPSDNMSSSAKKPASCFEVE
Briefly: Test on the angiotensin II receptor (displacement of 125I angiotensin II, fresh rat liver membrane preparation). The note with it: rat liver membranes, 25° C., 150 minutes, read-out: IC50 (50% inhibiting concentration, displacement of 125I angiotensin II). The format is binding. Here is the method: A fresh membrane preparation obtained from the liver of a rat was used. The tissue was ground in a polytron in a Tris 50 mM pH 7.4 buffer and the grinding is followed by 3 centrifugings at 30,000 g for 15 minutes with intermediate taking up of the pellets in the Tris pH 7.4 buffer.
The last pellets were suspended in an incubation buffer (Tris 20 mM, NaCl 135 mM, KCl 10 mM, glucose 5 mM, MgCl2 10 mM, PMSF 0.3 mM, bacitracin 0.1 mM, BSA 0.2%).
2 ml aliquot fractions were distributed in hemolysis tubes and ^125 I angiotensin II (25,000 DPM/tube) and the product to be studied were added. The product was first tested with 3×10^-5 M in triplicate. When the tested product displaced more than 50% of the radioactivity bound specifically to the receptor, it was tested again according to a range of 7 concentrations to determine the concentration which inhibited by 50% the radioactivity bound specifically to the receptor. In this way, the 50% inhibiting concentration was determined.
The non-specific bond was determined by the addition of the product of Example 94 of the European Patent 0253310, at 10^-5 M (in triplicate).The product was incubated at 25° C. for 150 minutes, put in a water-bath at 0° C. for 5 minutes, filtered under vacuum, rinsed with Tris pH 7.4 buffer and the radioactivity was counted in the presence of scintillating Triton. […]
(In general: In a radioligand displacement assay an active substance lowers the binding of a labelled ligand.)

The test system of experiment [2] is angiotensin II. As to the kind of experiment: Test for antagonistic activity of angiotensin II in a demedullated rat (intravenous). The class given is in vivo, Male Sprague-Dawley rats. The note with it: injected via right jugular vein 5 minutes before angiotensin II (0.75 micrograms/kg), diastolic arterial pressure, read-out: ID50 (dose inhibiting the effects on pressure of angiotensin II by 50%). On the procedure: Male Sprague-Dawley rats (250 to 350 g) were anaesthetized by an intra-peritoneal injection of sodium pentobarbital (60 mg/kg). The diastolic arterial pressure was recorded using a heparinated catheter (PE50) introduced into the left carotid artery of the animal, and connected to a pressure processor (Gould, Pressure Processor) by means of a Gould pressure sensor.
A catheter was introduced into the right jugular vein of the animal to permit the injection of the molecules to be studied.
The animal was placed under assisted respiration. A bilateral section of the pneumogastric nerve is carried out. The rat is then demedullated.
After a sufficient period of stabilization, the study of the antagonism of the molecules vis-a-vis angiotensin II (Hypertensin, CIBA) was carried out in the following way:
1--Three consecutive injections of angiotensin II (0.75 micrograms/kg) at 15 minute intervals enabled a reproducible and stable pressure response to be obtained.
2--While keeping an administration frequency of 15 minutes of the angiotensin II, the molecules (0.01 to 10 mg/kg) were injected 5 minutes before the angiotensin II.
The effects on pressure of angiotensin II in the presence of the antagonist were expressed as a percentage of the effects on pressure of angiotensin II administered on its own. The dose inhibiting the studied effect by 50% was determined in this way (ID50). […]

Experiment [3] relates to angiotensin II. As to the kind of experiment: Test of the antagonistic activity of angiotensin II by oral route in a demedullated rat. The note with it: oral (force-feeding), angiotensin II 0.75 ug/kg 60 and 75 minutes after force-feeding, read-out: ID50 (dose inhibiting the effects on pressure of angiotensin II by 50%), oral route. The class given is in vivo, Male Sprague Dawley rats. On the procedure:
Male Sprague Dawley rats of equal weight (300-330 g) were selected. The animals were divided into several groups (n ≥6 per group), receiving either the solvent (control group) or the antagonistic molecule of angiotensin II. The doses administered were determined from the ID50 IV. The solvent used. was methyl cellulose (5 ml/kg).
45 minutes after force-feeding, the animals were anaesthetized with sodium pentobarbital (60 mg/kg, IP). The diastolic arterial pressure was recorded using a heparinated catheter (PE50) introduced into the left carotid artery of the animal, and connected by means of a pressure sensor (Gould, P10 EZ) to a pressure processor (Gould, Pressure Processor). The rat was put under assisted respiration, then demedullated and bilaterally vagotomized.
Two injections of angiotensin II (0.75 ug/kg; Hypertensin, Ciba) were given via the pudendal vein, 60 and 75 minutes respectively after the force-feeding of the animals.
The effects on pressure of angiotensin II in the presence of the antagonist were expressed as a percentage of the effects on pressure of angiotensin II administered to the control group.
For each product, the dose inhibiting the studied effect by 50% (ID50) was thus determined.

SMILES strings stand for the structures.

For the molecule `CCCCc1nn2cccc(C(=O)O)c2c1Cc1ccc(-c2ccccc2-c2nnn[nH]2)cc1` [Example 21, 2-butyl 3-[(2'-(1H-tetrazol-5-yl) (1,1'-biphenyl) 4-yl)methyl]pyrazolo(1,5-a)pyridin 4-carboxylic acid], in experiment [1], the IC50 came out at 0.5 nM. Also, the ED50 turned out to be 0.3 mg/kg in experiment [2] and 2.35 mg/kg in experiment [3].

As for `CCCCc1nn2c(C)cccc2c1Cc1ccc(-c2ccccc2-c2nn[nH]n2)cc1` [Example 32, 2-butyl 7-methyl 3-[[2'-(1H-tetrazol--S--yl) (1,1'-biphenyl) 4-yl]methyl]pyrazolo (1,5-a) pyridine], the IC50 in experiment [1] is 24 nM.

The values are drawn from patent publication US5420138A, “Bicyclic pyridines which are angiotensin II inhibitors” (Roussel-UCLAF, priority 1992, dated 1995).
